The values that follow come from patent US5837729A, “Methods for treating and preventing HIV infection using acetaminophen and derivatives thereof” (priority 1996, dated 1998).

Data set [1] relates to HIV. Put plainly: HIV infection of MT-4 T lymphocytes, p24 ELISA of culture supernatant on day 2. It counts as cell-based. The note with it: for IC100 / IC50: Human immunodeficiency virus 1, T-lymphocyte; for IC100: 48 h; for IC50 / anti-HIV activity (in words): MT-4, p24. How it is done:
(§1) The % values on the right axis were positioned in a fashion that allows estimation of inhibitory effect of the test drug as a function of AGB concentration plotted on the horizontal axis.
(§2) The % values on the right axis were positioned in a fashion that allows estimation of the inhibitory effect of test drug as a function of EGB concentration plotted on the horizontal axis.
Indicator MT-4 T lymphocytes (10^5 cells/ml) were plated in triplicates in 96-well culture plates in the presence of serial 10-fold molar dilutions of test compound. Each culture well contained 180 μl of RPMI 1640 culture medium with 10% FBS, L-glutamine, penicillin and streptomycin. Immediately thereafter MT-4 lymphocytes were exposed to 20 μl of viral inoculum corresponding to 100 infectious units per lymphocyte as determined by limiting dilution assay. Two days later--the minimal time period corresponding to full replication cycle of HIV--the culture supernatants were collected and dose-response to drugs was quantitated by measuring the levels of cell-free p24 antigen. The amount of released virus was calculated by comparing the optical density of experimental values from treated wells to commercial p24 standards (Coulter, Hialeah, Fla.).
(§3) The serial ten-fold dilutions of AGB, virus, and cells were left without washing in the culture until tested for HIV production 2 days later. Topical contraceptive agents nonoxynol-9 and gramicidin were used as controls.
(§4) The serial ten-fold dilutions of EGB, virus, and cells were left without washing in the culture until tested for HIV production 2 days later. Topical contraceptive agents nonoxynol-9 and gramicidin were used as controls.
(In general: In an ELISA, binding on a coated surface is turned into a signal by an enzyme label.)

For data set [2], the system named is MT-4 T lymphocytes. Put plainly: in vitro.
From the text: (§5) The % values on the right axis were positioned in a fashion that allows estimation of inhibitory effect of the test drug as a function of acetaminophen concentration plotted on the horizontal axis.
as §1, §2
(§6) The toxicity of compounds was tested as follows. MT-4 lymphocytes were grown in the presence or absence of log10 dilutions of test compounds for two days. The cells were then exposed for 4 hours to the preparation of XTT tetrasolium salt (Sigma, St Louis, Mo.) containing phenazine methosulfate (Aldrich, Milwaukee, Wis.). The viability of drug-exposed cells was determined based on activity of mitochondrial […] of MT-4 converting XTT into color-dense formazan. Optical density was then determined in a plate reader at […] with reference filter at […] and compared to absorbance values of the control cells cultured without drugs. XTT test was also confirmed by trypan blue exclusion test based on the principle that nuclei of dead cells are stained blue.
as §3, §4

The conditions of data set [3]: cited from earlier work; for potency as experimental vaginal contraceptive, fold more potent than nonoxynol-9: versus nonoxynol-9.
The subject of data set [4] is acrosin. The following applies: correlated with contraceptive effect; cited from earlier work.
The test system of data set [5] is human spermatozoa. The note with it: in vitro with human spermatozoa and in animal studies; cited from earlier work.
Data set [6] is described as follows: in vitro. The note with it: human, mt-4 cells.
From the text: as §5, §1, §2, §6, §3, §4

For data set [7] the following is noted: cited from earlier work.
Data set [8] deals with MT-4 T lymphocytes. It counts as cell-based. As for the experimental part: The toxicity of compounds was tested as follows.
Data set [9] has as its system HIV. The note with it: cited from earlier work.
[10] abbreviates: Table 1, MT-4, 2 days, read-out: IC100 (approximate order of anti-HIV concentration).
[11] abbreviates: p24 ELISA, MT-4 supernatant, day 2, read-out: Complete inhibition of HIV replication, concentration.
Where [12] appears, read: background, earlier work of inventor.

In brackets after ≈: the same amount, converted by molar mass. Several values for one entry are separate records, joined by “and”; a condition that tells them apart may be missing. Equal values may be shown once. Entries after “also recorded” stand apart in the source; their conditions may differ. Read-outs that look alike come from different tables or passages of the source. Where only a bound is given, the exact number is not on record here.

On to `CC(=O)Nc1ccc(OC(=O)c2ccc(NC(=N)N)cc2)cc1` [AGB, 4'-acetamidophenyl 4-guanidinobenzoate], for which, in data set [1], the “antiviral potency relative to nonoxynol-9, times less potent” value turned out to be 10 times. Besides, the IC100 in data set [1] (setting [10]) and in data set [1] (setting [11]) was 100 µg/mL throughout. The IC50 in data set [1] (read-out: anti-HIV activity in vitro, IC50) stood at 14 µg/mL (≈ 44.8 µM). For the same compound, the “SI, selectivity index, ratio between CC100 and IC100 values” in data set [1] (Table 1, CC100/IC100) is given as 100. For the same compound, in data set [2] (human, 2880 min), the “CC100 (cytotoxicity)” value was found to be 10000 µg. Further, in [3], the “toxicity and irritation versus nonoxynol-9 (in words)” value is “far less toxic and irritating”. Moreover, the “potency as experimental vaginal contraceptive, fold more potent than nonoxynol-9” value in [3] is reported as “up to 100 fold”. Also, in data set [4], the “acrosin activity (in words)” value is listed as “inhibitory action on acrosin activity”. Moreover, the “optimal concentration required to inhibit both acrosome reaction and sperm motility” value in [5] is 100 µg/mL.
`CC(=O)Nc1ccc(O)cc1` [Acetaminophen, acetaminophen]: the IC100 in data set [1] (setting [10]) was 150 µg/mL; in data set [1] (setting [11]), 150 µg/mL and 1000 µM. Further, the IC50 in [1] (read-out: inhibitory concentration (IC50), 50% inhibition of de novo HIV infection) came out at 21 µg/mL (≈ 139 µM). For the same compound, the “anti-HIV activity (in words)” value in [1] is “antivirally active”. The selectivity ratio in data set [6] was at most 75. The “toxicity at tested concentrations (in words)” value in [2] is reported as “has not shown any toxicity at all tested concentrations”. Also, in data set [2] (up to highest tested dose containing 0.5% of ethanol), the “toxic dose-effect by XTT formazan OD (in words)” value is “no observable toxic dose-effect”. Moreover, the “anti-inflammatory activity (in words)” value in data set [7] (human, in vivo) is “no anti-inflammatory activity”. Also, in data set [7] (overdose or consumption with alcohol), the “toxicity / hepatotoxicity (in words)” value was “can cause hepatotoxicity”.
Consider `CCOC(=O)c1ccc(OC(=O)c2ccc(NC(=N)N)cc2)cc1` [EGB, 4'-carboethoxyphenyl 4-guanidinobenzoate], for which, in data set [1], the “SI, selectivity index, ratio between CC100 and IC100 values” came to 1; the “anti-HIV activity (in words)” value was “antiviral activity was not specific and due to the death of host lymphocytes; also recorded: no effect on HIV infection at doses that were not toxic; also recorded: has not shown specific anti-HIV activity”. Also, the IC100 in data set [1] (setting [10]) is 100 µg/mL. The “CC100 (cytotoxicity)” value in data set [2] (human, 2880 min) was determined as 100 µg. In data set [8], the “viability of MT-4 lymphocytes by trypan blue exclusion (in words)” value is “death of MT-4 lymphocytes”. Further, in data set [3], the “toxicity and irritation versus nonoxynol-9 (in words)” value was “far less toxic and irritating”; the “potency as experimental vaginal contraceptive, fold more potent than nonoxynol-9” value was “up to 100 fold”. Further, the “acrosin activity (in words)” value in [4] is listed as “inhibitory action on acrosin activity”.
For `CC(C)C[C@H](NC(=O)[C@@H](O)[C@H](N)Cc1ccccc1)C(=O)O` [bestatin], the “anti-HIV effect / inhibition of HIV replication (in words)” value (“anti-HIV effect / inhibition” below) in [9] (setting [12]) is given as “anti-HIV effect”.
With `CN/C(=N/CCSCc1nc[nH]c1C)NC#N` [cimetidine], the “anti-HIV effect / inhibition” value in data set [9] is “able to inhibit HIV replication without producing significant cytotoxicity”.
Take `C[C@@H]1C[C@H]2[C@@H]3CCC4=CC(=O)C=C[C@]4(C)[C@@]3(F)[C@@H](O)C[C@]2(C)[C@@]1(O)C(=O)CO` [dexamethasone]: in data set [9] (setting [12]), the “anti-HIV effect / inhibition” value is listed as “anti-HIV effect”.
Regarding `COc1ccc2c(c1)c(CC(=O)O)c(C)n2C(=O)c1ccc(Cl)cc1` [indomethacin], the “relative anti-HIV potency (in words)” value in [9] (indomethacin versus aspirin) is on record as “more potent than aspirin”.
In the case of `c1ccc([C@H]2CN3CCSC3=N2)cc1` [levamisole], the “anti-HIV effect / inhibition” value in [9] was “anti-HIV effect”.
Take `CC(=O)[C@H]1CC[C@H]2[C@@H]3CCC4=CC(=O)CC[C@]4(C)[C@H]3CC[C@]12C` [progesterone]: the “anti-HIV effect / inhibition” value in data set [9] (setting [12]) is listed as “anti-HIV effect”.
Turning to `CC(=O)CC(c1ccccc1)c1c(O)c2ccccc2oc1=O` (stereo not drawn) [warfarin], the “anti-HIV effect / inhibition” value in [9] (setting [12]) is “anti-HIV effect”.
As for estrogen, the “anti-HIV effect / inhibition” value in [9] (setting [12]) is “anti-HIV effect”.
Turning to gramicidin, the “IC100 (approximate order of anti-HIV concentration)” value in data set [1] (Table 1, MT-4, 2 days) is given as 10 ng. For the same compound, the “CC100 (cytotoxicity)” value in [2] (Table 1, MT-4, 2 days) is 10 µg. Besides, the “toxicity relative to AGB (in words)” value in data set [2] (dose compared with AGB) was “toxic at doses that are a thousand-fold lower than AGB”. Moreover, the “anti-HIV effect / inhibition” value in data set [9] (setting [12]) was “able to inhibit HIV replication without producing significant cytotoxicity”.
With nonoxynol-9, the “IC100 (approximate order of anti-HIV concentration)” value in data set [1] (Table 1, MT-4, 2 days) came out at 10000 ng. For the same compound, the “CC100 (cytotoxicity)” value in data set [2] (Table 1, MT-4, 2 days) is 10 µg. Besides, the “local toxicity (in words)” value in data set [7] (spermicidal agent, effective concentration) is on record as “local toxicity of this agent is incompatible with its antiviral activity when used at an effective concentration”.
